Assay results taken from ChEMBL document CHEMBL1201862, “PubChem BioAssay data set” (2004).
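Step 1: Grow cells in 96-well plates. Step 2: Expose to compound for 48 hours at 5 concentrations. Step 3: Interpolate endpoints linearly; if unreached, use highest concentration. Here, GI50 denotes the concentration required for 50% inhibition of growth.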 Active and inactive are the calls of the source. No stated cut-off is given here; in the data, active = GI50 up to about 1.1 µM and inactive = higher.

How the values were obtained:
Assay in all cases: NCI anticancer screen, dose series, 48 h
[1] = test system: 786-0
[2] = test system: A549
[3] = test system: ACHN
[4] = test system: CAKI-1
[5] = test system: COLO 205
[6] = test system: DLD-1
[7] = test system: DMS-273
[8] = test system: HCC 2998
[9] = test system: HCT-116
[10] = test system: HCT-15
[11] = test system: HOP-62
[12] = test system: HOP-92
[13] = test system: HT-29
[14] = test system: IGROV-1
[15] = test system: K562
[16] = test system: KM-20L2
[17] = test system: KM12
[18] = test system: LOX IMVI
[19] = test system: LXFL 529
[20] = test system: M14
[21] = test system: M19-MEL
[22] = test system: MOLT-4
[23] = test system: Malme-3M
[24] = test system: NCI-H226
[25] = test system: NCI-H23
[26] = test system: NCI-H460
[27] = test system: NCI-H522
[28] = test system: OVCAR-3
[29] = test system: OVCAR-4
[30] = test system: OVCAR-5
[31] = test system: OVCAR-8
[32] = test system: RXF 631
[33] = test system: SF-268
[34] = test system: SF-295
[35] = test system: SF-539
[36] = test system: SK-MEL-28
[37] = test system: SK-MEL-2
[38] = test system: SK-OV-3
[39] = test system: SN12C
[40] = test system: SNB-19
[41] = test system: SNB-75
[42] = test system: SNB-78
[43] = test system: SW-620
[44] = test system: TK-10
[45] = test system: U-251
[46] = test system: UACC-257
[47] = test system: UACC-62
[48] = test system: UO-31
[49] = test system: XF498
[50] = test system: A498
[51] = test system: CCRF-CEM
[52] = test system: DMS-114
[53] = test system: EKVX
[54] = test system: HL-60
[55] = test system: HOP-18
[56] = test system: RPMI-8226
[57] = test system: RXF 393
[58] = test system: SK-MEL-5
[59] = test system: SR

CC1CCCCc2nc3c(c(=O)n21)CCCC3 (stereo not drawn)
GI50 [1]: > 100 µM (inactive)
GI50 [2]: > 100 µM (inactive)
GI50 [3]: > 100 µM (inactive)
GI50 [4]: > 100 µM (inactive)
GI50 [5]: > 100 µM (inactive)
GI50 [6]: > 100 µM (inactive)
GI50 [7]: > 100 µM (inactive)
GI50 [8]: > 100 µM (inactive)
GI50 [9]: > 100 µM (inactive)
GI50 [10]: > 100 µM
GI50 [11]: > 100 µM (inactive)
GI50 [12]: > 100 µM (inactive)
GI50 [13]: > 100 µM (inactive)
GI50 [14]: > 100 µM (inactive)
GI50 [15]: > 100 µM (inactive)
GI50 [16]: > 100 µM (inactive)
GI50 [17]: > 100 µM (inactive)
GI50 [18]: > 100 µM (inactive)
GI50 [19]: > 100 µM (inactive)
GI50 [20]: > 100 µM (inactive)
GI50 [21]: > 100 µM (inactive)
GI50 [22]: > 100 µM (inactive)
GI50 [23]: > 100 µM (inactive)
GI50 [24]: > 100 µM (inactive)
GI50 [25]: > 100 µM (inactive)
GI50 [26]: > 100 µM (inactive)
GI50 [27]: > 100 µM (inactive)
GI50 [28]: > 100 µM (inactive)
GI50 [29]: > 100 µM (inactive)
GI50 [30]: > 100 µM (inactive)
GI50 [31]: 63.2 µM (inactive)
GI50 [32]: 29.4 µM (inactive)
GI50 [33]: > 100 µM (inactive)
GI50 [34]: > 100 µM (inactive)
GI50 [35]: > 100 µM (inactive)
GI50 [36]: > 100 µM (inactive)
GI50 [37]: > 100 µM (inactive)
GI50 [38]: > 100 µM (inactive)
GI50 [39]: > 100 µM (inactive)
GI50 [40]: > 100 µM (inactive)
GI50 [41]: > 100 µM (inactive)
GI50 [42]: > 100 µM (inactive)
GI50 [43]: > 100 µM (inactive)
GI50 [44]: > 100 µM (inactive)
GI50 [45]: > 100 µM (inactive)
GI50 [46]: > 100 µM (inactive)
GI50 [47]: > 100 µM (inactive)
GI50 [48]: > 100 µM (inactive)
GI50 [49]: > 100 µM (inactive)

O=C(NCCCCCCCCNC(=O)c1cnc2ccccc2n1)c1cnc2ccccc2n1
GI50 [1]: > 100 µM (inactive)
GI50 [50]: > 100 µM (inactive)
GI50 [2]: > 100 µM (inactive)
GI50 [3]: > 100 µM (inactive)
GI50 [4]: > 100 µM (inactive)
GI50 [51]: > 100 µM (inactive)
GI50 [5]: > 100 µM (inactive)
GI50 [6]: > 100 µM (inactive)
GI50 [52]: > 100 µM (inactive)
GI50 [7]: > 100 µM (inactive)
GI50 [53]: > 100 µM (inactive)
GI50 [9]: > 100 µM (inactive)
GI50 [10]: > 100 µM
GI50 [54]: > 100 µM (inactive)
GI50 [55]: > 100 µM (inactive)
GI50 [11]: > 100 µM (inactive)
GI50 [12]: > 100 µM (inactive)
GI50 [13]: > 100 µM (inactive)
GI50 [14]: > 100 µM (inactive)
GI50 [15]: > 100 µM (inactive)
GI50 [17]: > 100 µM (inactive)
GI50 [18]: > 100 µM (inactive)
GI50 [19]: > 100 µM (inactive)
GI50 [20]: > 100 µM (inactive)
GI50 [21]: > 100 µM (inactive)
GI50 [22]: > 100 µM (inactive)
GI50 [23]: > 100 µM (inactive)
GI50 [24]: 32.1 µM (inactive)
GI50 [25]: > 100 µM (inactive)
GI50 [26]: > 100 µM (inactive)
GI50 [28]: > 100 µM (inactive)
GI50 [29]: > 100 µM (inactive)
GI50 [30]: > 100 µM (inactive)
GI50 [31]: > 100 µM (inactive)
GI50 [56]: > 100 µM (inactive)
GI50 [57]: > 100 µM (inactive)
GI50 [33]: > 100 µM (inactive)
GI50 [34]: > 100 µM (inactive)
GI50 [35]: > 100 µM (inactive)
GI50 [37]: > 100 µM (inactive)
GI50 [58]: > 100 µM (inactive)
GI50 [38]: > 100 µM (inactive)
GI50 [39]: > 100 µM (inactive)
GI50 [40]: > 100 µM (inactive)
GI50 [41]: 49.9 µM (inactive)
GI50 [42]: > 100 µM (inactive)
GI50 [59]: > 100 µM (inactive)
GI50 [43]: > 100 µM (inactive)
GI50 [44]: > 100 µM (inactive)
GI50 [45]: > 100 µM (inactive)
GI50 [46]: > 100 µM (inactive)
GI50 [47]: > 100 µM (inactive)
GI50 [48]: > 100 µM (inactive)
GI50 [49]: > 100 µM (inactive)
